According to the supplement of paper PMC11451515:

Test system: NOMO1
Assay: cell viability relative to DMSO control; higher = less cytotoxic
Settings: 48 h
In short: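 Leukemia cells (NOMO1 or SEM, 500 cells/well; P12-Ichikawa, 1000 cells/well) were seeded in 5 μl in 1536-well plates after at least four passages of adaptation to each medium. They received library compounds in DMSO by pin dosing, 11 threefold points from 47 μM to 0.79 nM. Luminescence with CellTiter-Glo One was read after 48 h at 37°C. Viability is stated per plate relative to DMSO wells, with cell-free wells as background.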

[1] = HPLM + 10% dialyzed FBS, 0.000781 µM
[2] = HPLM + 10% dialyzed FBS, 0.00234 µM
[3] = HPLM + 10% dialyzed FBS, 0.00702 µM
[4] = HPLM + 10% dialyzed FBS, 0.0211 µM
[5] = HPLM + 10% dialyzed FBS, 0.0632 µM
[6] = HPLM + 10% dialyzed FBS, 0.19 µM
[7] = HPLM + 10% dialyzed FBS, 0.569 µM
[8] = HPLM + 10% dialyzed FBS, 1.71 µM
[9] = HPLM + 10% dialyzed FBS, 5.12 µM
[10] = HPLM + 10% dialyzed FBS, 15.4 µM
[11] = HPLM + 10% dialyzed FBS, 46.1 µM
[12] = RPMI 5 mM glucose + 10% FBS, 0.000781 µM
[13] = RPMI 5 mM glucose + 10% FBS, 0.00234 µM
[14] = RPMI 5 mM glucose + 10% FBS, 0.00702 µM
[15] = RPMI 5 mM glucose + 10% FBS, 0.0211 µM
[16] = RPMI 5 mM glucose + 10% FBS, 0.0632 µM
[17] = RPMI 5 mM glucose + 10% FBS, 0.19 µM
[18] = RPMI 5 mM glucose + 10% FBS, 0.569 µM
[19] = RPMI 5 mM glucose + 10% FBS, 1.71 µM
[20] = RPMI 5 mM glucose + 10% FBS, 5.12 µM
[21] = RPMI 5 mM glucose + 10% FBS, 15.4 µM
[22] = RPMI 5 mM glucose + 10% FBS, 46.1 µM
[23] = RPMI 5 mM glucose + 10% dialyzed FBS, 0.000781 µM
[24] = RPMI 5 mM glucose + 10% dialyzed FBS, 0.00234 µM
[25] = RPMI 5 mM glucose + 10% dialyzed FBS, 0.00702 µM
[26] = RPMI 5 mM glucose + 10% dialyzed FBS, 0.0211 µM
[27] = RPMI 5 mM glucose + 10% dialyzed FBS, 0.0632 µM
[28] = RPMI 5 mM glucose + 10% dialyzed FBS, 0.19 µM
[29] = RPMI 5 mM glucose + 10% dialyzed FBS, 0.569 µM
[30] = RPMI 5 mM glucose + 10% dialyzed FBS, 1.71 µM
[31] = RPMI 5 mM glucose + 10% dialyzed FBS, 5.12 µM
[32] = RPMI 5 mM glucose + 10% dialyzed FBS, 15.4 µM
[33] = RPMI 5 mM glucose + 10% dialyzed FBS, 46.1 µM

SMILES	cell viability [1] [%]	cell viability [2] [%]	cell viability [3] [%]	cell viability [4] [%]	cell viability [5] [%]	cell viability [6] [%]	cell viability [7] [%]	cell viability [8] [%]	cell viability [9] [%]	cell viability [10] [%]	cell viability [11] [%]	cell viability [12] [%]	cell viability [13] [%]	cell viability [14] [%]	cell viability [15] [%]	cell viability [16] [%]	cell viability [17] [%]	cell viability [18] [%]	cell viability [19] [%]	cell viability [20] [%]	cell viability [21] [%]	cell viability [22] [%]	cell viability [23] [%]	cell viability [24] [%]	cell viability [25] [%]	cell viability [26] [%]	cell viability [27] [%]	cell viability [28] [%]	cell viability [29] [%]	cell viability [30] [%]	cell viability [31] [%]	cell viability [32] [%]	cell viability [33] [%]
CC(C)c1cc(C(=O)N2Cc3ccc(CN4CCN(C)CC4)cc3C2)c(O)cc1O	125	118	109	108	126	128	70.8	24	20.3	19.5	19.9	97.1	107	105	110	105	117	62.2	21.3	15.9	17.5	14.8	119	120	111	117	119	127	71.7	33.9	20.5	20.1	17.6
CN(C)CCOc1ccc(-c2nc(-c3ccncc3)c(-c3ccc4c(c3)CC/C4=N\O)[nH]2)cc1	98.1	113	102	110	127	129	129	107	95.3	95.2	62.9	97	101	95	104	118	112	97.2	95.5	104	86.9	81.4	108	105	121	106	119	121	115	106	85.5	85.4	53.8
CN1C(=O)C[C@H](C(=O)N[C@@H](Cc2cnc[nH]2)C(=O)N2CCC[C@H]2C(N)=O)NC1=O	119	122	109	113	116	125	126	130	104	108	107	126	115	121	119	126	132	114	124	116	115	114	–	–	–	–	–	–	–	–	–	–	–
Cc1cc(Nc2cc(CN3CCOCC3)c3nc(C)c(Cc4ccc(Cl)cc4F)n3n2)[nH]n1	114	121	130	114	137	115	101	110	99.7	53.5	48.3	103	98.2	103	111	95.4	114	94	94.7	91.7	36.7	28.2	102	111	119	115	115	106	109	97.3	92	45	34.3
CCOC(=O)c1cncn1[C@H](C)c1ccccc1	–	–	–	–	–	–	–	–	–	–	–	118	116	135	128	112	115	121	127	117	119	125	–	–	–	–	–	–	–	–	–	–	–
COC1=C2C[C@@H](C)C[C@H](OC)[C@H](O)[C@@H](C)/C=C(\C)[C@H](OC(N)=O)[C@@H](OC)/C=C/C=C(\C)C(=O)NC(=CC1=O)C2=O	–	–	–	–	–	–	–	–	–	–	–	108	119	104	119	109	111	109	110	101	80.4	4.86	112	111	123	113	115	114	113	121	123	81.3	5.45
Cc1cc(C(=O)N2CCN(c3cccc(Cl)c3)CC2)n(-c2ccccc2)n1	116	115	114	97.7	115	116	91.8	70.7	30.7	26.5	29.3	90.3	99.9	96.1	97.5	94.5	99.7	99.6	92.2	69.7	15.9	14.8	98	100	96.6	90.7	89.7	109	90.5	85.9	38.3	22	24.1
C[S+](=O)([O-])c1cccc(CNc2nc(Nc3ccc4c(c3)CCC(=O)N4)ncc2C(F)(F)F)c1	–	–	–	–	–	–	–	–	–	–	–	99.6	113	116	115	108	114	113	100	93.3	91.6	53.9	107	109	114	129	99.9	115	105	111	108	86.1	58.9
O=C(Nc1ncc(SCCN2CCCC2)s1)[C@]1(c2ccc([S+](=O)([O-])C3CC3)cc2)C[C@H]1C1CCCCC1	111	136	110	123	120	106	105	102	103	70.2	5.84	125	127	123	111	123	113	107	128	108	104	25.1	118	117	118	126	124	111	114	117	110	94.2	17.4
